Reference: patent publication US20160136284A1, “GLIOMA TREATMENT” (priority 2012, published 2016)

Columns and labels:
[1] = test system: SNB19 and UPAB glioma cells; test: MTT cytotoxicity assay in glioma cell lines; assay type: cell-based
Method: Cell lines were kindly provided by Geoffrey Pilkington from the Institute of Biomedical and Biomolecular Sciences at Portsmouth University, UK. The cell lines used in this study were SNB19 (P20-P45) and UPAB (P20-P45).
Briefly, SNB19 and UPAB glioma cells were plated at 1×10^4/well in a 24-well plate. Cells were treated 72 hours later with Carboplatin at the following concentrations: 0.06 mg, 0.12 mg, 0.18 mg, 0.24 mg, 0.3 mg, 0.36 mg, and 0.6 mg (TEVA, UK) for 24, 48, 72, or 96 hours. Each concentration was repeated 4 times. Carboplatin was diluted in phosphate buffered saline (PBS; Sigma Aldrich, UK) and added to 0.5 mL culture media. PBS was used as a negative control and Puromycin dihydrochloride (10 μg/mL; Sigma Aldrich, UK), which inhibits cell growth by preventing protein synthesis, was used as a positive control. Following the incubation period, culture media was changed. Then 50 μL Methylthiazolyl-tetrazolium bromide solution (MTT; Sigma Aldrich, UK; 5 mg/mL) was added to each well and further incubated for 3 hours at 37° C. in a humidified 5% CO2 atmosphere to allow MTT to form formazan crystals in metabolically active cells. Following this, media was removed, and the formazan crystals in each well were solubilized with 190 μL of isopropanol (Fisher Scientific, Loughborough, UK) acidified with hydrochloric acid (VWR, Leicestershire, UK). The cell lysate was transferred to a 96 well plate and the absorbance of each well was measured at 570 nm using a Multiskan Ascent plate reader (Thermo Electron Corporation, UK). Results are expressed as a percentage (%) of treated versus untreated cells.

synaptophysin = test: Synaptophysin ELISA of rat brain homogenates after carboplatin infusion; assay type: in vivo; conditions: 72 hours after infusion
Method: Brain tissue homogenates were prepared from dissected samples of unfixed frozen hemispheres from rats at 72 hours after infusion of either artificial CSF (control) or carboplatin at concentrations of 0.36 and 0.72 mg/ml. Tissue samples incorporating the overlying cerebral cortex (approximately 200 mg) were dissected and homogenised for 75 s using a Precellys 24 automated tissue homogeniser (Stretton Scientific) with 2.3 mm silica beads (Biospec) in 1% SDS, 10 mM tris base (pH 6.0), 0.1 mM sodium chloride, and the protease inhibitors aprotinin (1 μg/ml; Sigma) and PMSF (10 μM; Sigma). The resultant crude tissue homogenates were centrifuged at 13,000 rpm for 15 min at 4° C., and the supernatants aliquoted and stored at −80° C.
Ninety-six-well plates (Nunc Maxisorp) were coated with primary rabbit anti-synaptophysin polyclonal antibody (Abeam) at a concentration of 1 μg/ml, and incubated overnight at 4° C. After 5 washes with wash buffer, non-specific binding was blocked with the addition of 1% BSA/PBS for 2 hours. After 5 washes with wash buffer, serial dilutions of recombinant synaptophysin or the supernatant of crude homogenates were added to wells in triplicate, and incubated at room temperature for 2 hours. […] Plates were read in a microplate reader at 405 nm (BMG Labtech).

[2] = Coinfusion of carboplatin and gadolinium-DTPA into pig corona radiata (T1 MRI, LA-ICP-MS); assay type: in vivo; conditions: carboplatin 0.03 mg/ml coinfused with 0.3% gadolinium-DTPA, CED
Method: Carboplatin infusions were undertaken into male Large White Landrace pigs weighing 45 kg using a cannula system developed in-house. Pig anaesthesia, head immobilisation and brain imaging were achieved as we have previously described White et al (2010). Infusions of 120 μl 0.03 mg/ml carboplatin mixed with 0.3% (6 μmol/l) Gadolinium-DTPA (Magnevist: Bayer Healthcare, Germany), were undertaken bilaterally into the corona radiata using a cannula composed of a length of fused silica (outer diameter 220 μm, inner diameter 150 μm) bonded to a glass Hamilton syringe. Except for the distal 3 mm, this fused silica tube was supported along its length by a series of zirconia tubes to ensure that it could be accurately inserted to target. Infusions were performed using the following regime: 0.5 μl/min for 5 min, 1 μl/min for 5 min, 2.5 μl/min for 5 min and then 5 μl/min for 20 min. This regime was employed in an attempt to minimise the occurrence of a sudden surge in pressure at the catheter tip due to elasticity in the infusion tubing. 120 μl was infused as this is the largest volume that we have previously infused into pig white matter without leakage into the ventricular system. Following infusion completion, the cannula was left in place for 10 min prior to being withdrawn slowly by hand. CSF leakage from the burr hole and cannula track was sealed with Cerebond prior to wound closure. […]

GBM = conditions: 4 consecutive sets of infusions at 0.03 mg/ml, assuming 50% kill per set
Method: This is a phase I, single centre, dose-escalation study, of carboplatin administered by CED, into the peritumoural region of patients with recurrent or progressive GBM, following tumour resection. The study will incorporate six cohorts, with three patients in each cohort.
Following tumour resection (study day 0), patients undergo a baseline MRI scan (study day 10-21), followed within 24 hours by catheter implantation. For patients with progressive multifocal disease in whom re-resection is not felt to be appropriate, catheters are implanted following a baseline MRI scan. Prior to catheter implantation, patients are loaded with phenytoin (unless allergic) and will be kept on this anticonvulsant during the duration of their infusions. In the event of allergy to phenytoin, patients are administered an alternative anticonvulsant during this time period. […] Catheter tip location is determined at the operating surgeon's discretion, and will be based on diffusion imaging-based fibre-tracking using iPlan Flow (Brainlab, Germany) and experience gained in animal models and previous patients. Up to four catheters are implanted per patient under general anaesthetic and attached to connector tubing, which will be tunnelled to a subcutaneous access device incorporating in-line bacterial filters, implanted in the infraclavicular fossa. […]

[3] = high-dose intravenous delivery; cited from earlier work
[4] = cited from earlier work
[5] = single brainstem infusions, concentrations as high as 1 mg/ml; cited from earlier work

For `N.N.O=C([O-])C1(C(=O)[O-])CCC1.[Pt+2]` [carboplatin], which “concentration above which increase in cell kill is negligible” value ([1]; 72 hour exposure) is on record?
Its value is 0.24 mg/mL.

And the “concentration above which increase in cell kill is negligible” value ([1]; 96 hour exposure)?
Its value is 0.18 mg/mL.

And the cell kill ([1]; 96 hour exposure, 0.18 mg/ml)?
The cell kill was “greater than 90%”.

What about the “reduction in synaptophysin (indicative of toxicity)” value (synaptophysin; 0.36 mg/ml) of the same molecule?
Its value is “not at 0.36 mg/ml”.

And the “reduction in synaptophysin (indicative of toxicity)” value (synaptophysin; 0.72 mg/ml)?
Its value is “observed at 0.72 mg/ml”.

And the “distribution in pig corona radiata (LA-ICP-MS)” value [2]?
Its value is “widespread carboplatin distribution”.

What about the “theoretical tumour cell kill” value (GBM) of the same molecule?
The value was 94%.

What about the “peak glioma tissue concentration” value [3] of the same molecule?
The value was 0.013 mg/mL.

What about the serum concentration ([4]; intracranial infusions of 0.25 mg/kg in primates) of the same molecule?
Its serum concentration is 6 ng/mL.

And the clinical toxicity ([4]; one-month long brainstem infusions, 0.075 mg/kg)?
The clinical toxicity was “minimal clinical evidence of toxicity”.

And the histological tissue damage [5]?
Its histological tissue damage is “without histological evidence of tissue damage”.
